This assay addresses T1, Human PARG (Homo sapiens, UniProt Q86W56).
T1 construct: The human PARG (hPARG) catalytic domain (residues 389–976) was cloned in pET28a (Novagen); His-tag (N); made in house; host or cells: E. coli Rosetta
Kind of assay: Gel-based PARG activity assay. Format: biochemical. Here is the method:
PARP1C (2 μM) is enzymatically auto-modified in a reaction containing the PARP1 DBD (2 μM), a 24 mer nicked DNA oligo (2 μM), and NAD^+ (300 μM) for 1 h at 37 °C, as described previously. Human PARG^389–976 (1 nM) was pre-incubated with compounds for 1 h at room temperature. The reaction was initiated by the addition of PARylated PARP1 (final concentration of 500 nM) and quenched after 30 min incubation at room temperature by adding SDS-PAGE sample buffer. The gel was visualized by sypro-ruby staining[18] and the retained PARylated PARP1C species were quantified using ImageJ[59]. PARylated PARP1C that migrates slower than unmodified PARP1C was quantified. […] The IC50 values were determined by fitting the dose-response data for each compound to a four-parameter logistic equation using SigmaPlot (Systat Software Inc.).
To test the specificity of JA2131, human PARG^389–976 (1 nM) was pre-incubated with JA2131 (5, 10, and 20 μM) in the presence and absence of 0.1% Triton-X 100 or 0.1 mg/ml BSA for 1 h at room temperature. The reaction was initiated, quenched, visualized, and quantified as described above. […]
PARG activity assay. […]
PARP1 (500 nM). The reaction was quenched after a 30 -minu te in cu ba tion a t roo m te mpe ra tu re by adding SDS-PA GE sa mp le bu f fe r. PARylated PARP1C runs as a smear on SDS -PAGE that is reduced to a single band by PARG treatment. […]
2). (b) Qu an t if ica t ion o f the dose-response PARG inhibition by JA2 -3 using the gel-based PARG activity assay. hPARG (1 nM) was preincubated with increasing concentrations (0.032 – 1 µM) of JA2-3 f o r 1 hour at room temperature before PARylated PARP1C (500 nM) was added. The reaction was quenched after a 30-minu te incubation at room temperature. PARylated PARP1C migrates slower than unmodified PARP1C and was quantified using ImageJ. […] The rate of the PARG-dependent signal loss in the TR-FRET PAR turnover assay is not equivalent to the steady-state rate of PAR turnover, because the TR-FRET assay can’t detect signal loss until the length of PAR chains become shorter than 7 ADP-ribose units. Therefore, we used the gel-based PARG activity assay to accurately determine the IC50 values throughout the manuscript .

This is an account of results in publication PMC6906431, “Selective small molecule PARG inhibitor causes replication fork stalling and cancer cell death” (Nature Communications, 2019).

pIC50: −log10 of the molar value.

One may read the inhibition as the change of the read-out against control, counted positive when it falls. What is called pIC50 is the negative decadic logarithm of the IC50, by convention in mol/L. Read a high pIC50 as a small IC50.

T1 sequence (Q86W56 389-976): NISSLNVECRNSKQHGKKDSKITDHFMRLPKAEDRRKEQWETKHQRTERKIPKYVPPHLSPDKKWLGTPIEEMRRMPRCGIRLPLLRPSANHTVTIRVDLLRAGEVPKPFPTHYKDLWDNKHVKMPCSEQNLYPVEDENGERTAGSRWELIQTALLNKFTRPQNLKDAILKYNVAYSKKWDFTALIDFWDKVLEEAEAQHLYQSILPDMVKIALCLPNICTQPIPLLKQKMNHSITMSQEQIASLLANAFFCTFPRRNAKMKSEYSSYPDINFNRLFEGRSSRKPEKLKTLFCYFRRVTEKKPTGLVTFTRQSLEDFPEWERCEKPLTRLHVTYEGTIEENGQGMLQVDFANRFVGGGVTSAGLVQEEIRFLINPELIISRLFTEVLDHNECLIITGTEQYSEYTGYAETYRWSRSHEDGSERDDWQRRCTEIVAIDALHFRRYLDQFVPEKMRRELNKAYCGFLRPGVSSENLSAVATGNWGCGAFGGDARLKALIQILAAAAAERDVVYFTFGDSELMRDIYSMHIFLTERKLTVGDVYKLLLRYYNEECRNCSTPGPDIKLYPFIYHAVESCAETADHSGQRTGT

In the case of `Cn1c(=S)c2[nH]c(SCCN3CCOCC3)nc2n(C)c1=O` [JA2131], the “potency difference JA2131 (6´-thiocarbonyl) vs JA2120 (6´-carbonyl)” value is “more than 50 fold”. For the same compound, the “effect of detergent or nonspecific protein on PARG inhibition” value (JA2131 5, 10, 20 μM, 0.1% Triton-X 100 or 0.1 mg/ml BSA) is given as “Neither the addition of Triton-X 100 nor BSA significantly altered the inhibitory potency”. In addition, the inhibition at 0.0488281 µM ([L] 0.0488281 uM) came to 13.8%. For the same compound, for the setting “[L] 0.0976562 uM”, the inhibition at 0.0976562 µM is 26.2%. The inhibition at 0.195312 µM ([L] 0.195312 uM) was 34.6%. Besides, the inhibition at 0.390625 µM ([L] 0.390625 uM) is 58.8%. Moreover, the inhibition at 0.78125 µM ([L] 0.78125 uM) worked out at 62.5%. Also, where the note is “[L] 1.5625 uM”, the inhibition at 1.5625 µM came out at 75.5%. Also, the inhibition at 3.125 µM ([L] 3.125 uM) is 84.3%. Moreover, where the note is “[L] 6.25 uM”, the inhibition at 6.25 µM is 98.7%. Also, the inhibition at 12.5 µM ([L] 12.5 uM) came out at 99.5%. For the same compound, where the note is “[L] 25 uM”, the inhibition at 25 µM came to 104%. The inhibition at 50 µM ([L] 50 uM) was 94%. For the setting “hPARG 1 nM, PARylated PARP1C 500 nM, 30 min”, this compound had a pIC50 of 6.40.
